Measurements taken from PMC9822434, “Estradiol-Based Salicylaldehyde (Thio)Semicarbazones and Their Copper Complexes with Anticancer, Antibacterial and Antioxidant Activities” (Molecules, 2022).
≈ marks a conversion by molar mass, not a printed value.

Columns and labels:
[1] = test system: E. faecalis ATCC 29212; test: MIC determination; format: cell-based, Enterococcus faecalis; conditions: Enterococcus faecalis, ATCC29212; Gram-positive E. faecalis ATCC 29212; Mueller Hinton Broth
Method in brief: (§1)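 Broth microdilution in Mueller Hinton Broth, two-fold serial dilutions starting at 100 µM compound (from 10 mM stocks in 90% DMSO). Each well inoculated with a 10^−4 dilution of overnight culture. MIC read per prior lab method.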

[2] = direct redox reaction of the Cu(II) complexes with GSH (UV–vis, anaerobic); format: physicochemical; conditions: Cu(II) complex (25 µM) of the named ligand with GSH (1.25 mM), pH 7.4, anaerobic, 30% (v/v) DMSO/H2O, 25.0 °C
Method in brief: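 Complexes mixed with GSH or ascorbic acid at 25.0 ± 0.1 °C, pH 7.40 (10 mM HEPES, 0.1 M KCl) in a sealed tandem cuvette, both compartments argon-deoxygenated 10 min before mixing. UV–vis absorbance followed at complex λmax until stable; single-exponential fit, kobs taken as slope of ln(A/A0) versus t.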

[3] = test system: S. aureus ATCC 25928; test: MIC determination; format: cell-based, Staphylococcus aureus; conditions: Gram-positive S. aureus ATCC 25928, Mueller Hinton Broth
Method in brief: as §1

[4] = test system: A549, MCF-7, MCF-7 KCR and DU-145 cells; test: γH2AX immunostaining (DNA double-strand breaks); format: cell-based, human; conditions: 20 µM, 3 h
Description: In order to determine the degree of DNA damage induced by the treatments, DNA double-strand breaks were visualized by γH2AX immunostaining. For this, 1 × 10^5 cells/well were seeded onto coverslips in 24-well plates. […] Then, cells were fixed with 4% formaldehyde (Molar Chemicals, Halásztelek, Hungary), permeabilized with 0.3% Triton-X-100 (Calbiochem, Merck Millipore, Darmstadt, Germany) and were blocked using 5% bovine serum albumin (BSA) (Sigma-Aldrich, St. Louis, MO, USA). Then, the samples were incubated with anti-γH2AX antibody (Thermo Fisher Scientific, Waltham, MA, USA) in 1:300 dilution followed by Alexa 488 fluorophore-conjugated goat anti-mouse secondary antibody (Abcam, Cambridge, UK) in 1:600 dilution. The fluorescence intensity of the stained samples was detected by an Olympus FV10i confocal microscope.

[5] = physchem; format: physicochemical
Description: An Orion 710A pH-meter equipped with a Metrohm combined electrode (type 6.0234.100) and a Metrohm 665 Dosimat burette were used for the UV–vis titrations at 25.0 ± 0.1 °C. Ionic strength of 0.10 M (KCl) was used to keep the activity coefficients constant. The titrations were performed with carbonate-free KOH solution of known concentration (0.10 M) with 30% (v/v) DMSO content. […] The average water ionization constant (pKw) is 14.54 ± 0.05 in the 30% (v/v) DMSO/H2O mixture. Argon was always passed over the solutions during the titrations. An Agilent Cary 8454 diode array spectrophotometer was used to record the UV–vis spectra at an interval of 200–800 nm. The path length was 2 cm. Spectrophotometric titrations were performed using a 0.1 M KOH titrant solution with 30% (v/v) DMSO on samples with 30% (v/v) DMSO containing HCl, KCl and the ligand at 20 μM concentration in the pH range 2.0–12.5 in the absence or in the presence of 1 or 0.5 equiv. Cu(II) ions. Proton dissociation constants (Ka) of the TSC ligands, the overall stability constants (β) of the Cu(II) complexes and the UV–vis spectra of the individual species were calculated by the computer program PSEQUAD [41] as was done in our previous works.

[6] = format: physicochemical
Method in brief: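 UV–vis pH-metric titrations at 25.0 ± 0.1 °C, I = 0.10 M KCl, 30% (v/v) DMSO/H2O under argon; ligand 20 μM, pH 2.0–12.5, alone or with 1 or 0.5 equiv. Cu(II). Spectra 200–800 nm, 2 cm path; pKa, overall stability constants (β) and species spectra fitted with PSEQUAD.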

[7] = DPPH free radical scavenging assay
Method in brief: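 DPPH at 50 µM final mixed with compound (5–50 µM final) in ethanol at 25.0 ± 0.1 °C in tandem cuvette, read spectrophotometrically. Antioxidant activity percentage, IC50 (concentration reducing 50% of DPPH) and Trolox equivalent capacity derived; Trolox as positive control.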

[8] = Cu(II) complex of the named ligand, 30% (v/v) DMSO/H2O, T = 25.0 °C, I = 0.1 M (KCl)

Q: Which results are given for C[C@]12CC[C@@H]3c4cc(C=NNC(N)=S)c(O)cc4CC[C@H]3[C@@H]1CCC2O (stereo partly shown) [estradiol-TSC, 2-((3,17 Dihydroxy-estra-1,3,5(10)-triene-2-yl)methylene)Hydrazine-1-carbothioamide]?
A: MIC [1]: > 100 µM; kobs [2]: 0.07 ± 0.03 min⁻¹; melting point: 229 to 231 °C; MIC [3]: 25 µM (≈ 9.34 µg/mL); MIC ([3]; Staphylococcus aureus, ATCC25928): 25 µM (≈ 9.34 µg/mL); DNA double-strand breaks (γH2AX) vs untreated control cells [4]: None of these treatments caused a higher degree of DNA damage; pKa [5]: 9.23 ± 0.03; pKa [CuL]+ [6]: 3.95; logβ [CuLH−1] [6, 8]: 9.84 ± 0.03; logβ [CuL]+ [6, 8]: 13.79 ± 0.03; pCu5.0 ([6]; calculated at pH 5.0, cCu(II) = 20 µM, cligand = 20 µM): 7.8; pCu6.0 ([6]; estimated at pH 6.0, cCu(II) = 20 µM, cligand = 20 µM): 9.3; pCu7.4 ([6]; estimated at pH 7.4, cCu(II) = 20 µM, cligand = 20 µM): 12.1; TEAC (Trolox equivalent antioxidant capacity) ([7]; DPPH assay in ethanol, 25 °C): 0.8; % Scavenging Effect ([7]; DPPH:compound = 1:1 ratio after 30 min, ethanol, 25 °C): 72.0%; IC50 ([7]; in ethanol, T = 25 °C, cDPPH = 50 µM, ccompound = 5−50 µM): 14.6 µM
